The numbers were not newly measured in patent EP1530463B1, “L-ARGININE CONTAINING PHARMACEUTICAL COMPOSITION” (Vasopharm Biotech GmbH, priority 2002, dated 2004), which cites them from elsewhere.

Read-outs that look alike come from different tables or passages of the source.

In general, pKa refers to the pH at which an ionisable group is half protonated.

Consider `O=C1O[C@H]([C@@H](O)CO)C(O)=C1O` [ascorbic acid], for which, for the setting “organic acid”, the pKa is listed as 4.17.
In the case of `N=C(N)NCCC[C@H](N)C(=O)O` [L-arginine], where the note is “guanidino group”, the pKa was 12.48.
